The record followed here is patent publication US11207379B2, “Peptides with anti-cancer activity” (IDP DISCOVERY PHARMA, S.L., priority 2016, dated 2021).

Common to all, as to assay: Viability assay (MTT, Alamar Blue, hexosaminidase), 72 h
Holding throughout (type): cell-based
(In general: The colour change of resazurin is a common sign of viable cells or microbes.)

The target of assay [1] is MM.1S, B Lymphoblast (multiple myeloma). As for the experimental part: MM.1S, B Lymphoblast (multiple myeloma), ATCC: CRL-2974
(§1) Cell lines A549, MCF-7 and RAMOS were cultured in incubator under CO2 (6%) at 37° C. in DMEM high glucose (Dulbecco's Modified Eagle Solution, Gibco-BRL 31966-21) medium with 10% fetal bovine serum inactivated (FBS) (Gibco-BRL 10106-169). Cell lines HL-60 and MM.1S were cultured in incubator at 37° C. in RPMI-1640 (Sigma R8758) medium with 10% of fetal bovine serum inactivated (FBS) and 2 mM glutamine (Sigma G7513). Cell lines BJ were cultured in incubator under CO2 (6%) at 37° C. in Eagle's Minimum Essential Medium (Sigma, M-2279) with 10% fetal bovine serum inactivated (FBS) (Gibco-BRL 10106-169).
(§2) During the amplification step and the assays adherent cells were rinsed with DPBS (Dulbecco's Phosphate Buffered Saline, Sigma D1283) three times and afterward treated for 5 minutes with trypsin ([…]) (Gibco-BRL, 15400054) in solution of DPBS at 37° C., and, once detached, transferred in the culturing medium. No-adherent cells were centrifuged and transferred in the culturing medium. Cells were counted in a Neubauer chamber after labelling with Tripan-Blue.
(§3) A549, MCF-7 and JB cells were seeded at a density of 5000 cells/well and HL-60, MM.1S and Ramos at 10000 cells/well in 100 μl of medium in 96 well plates. After 24 h, the compounds to be tested were added to calculate the dose/response curve at the starting concentration of 100 μM with serial dilutions (1:1). Controls are the untreated cells. Each experiment was performed in triplicate.
(§4) Cells were incubated during 72 h in incubator under CO2 atmosphere at 37° C. Cell viability was measured by means of MTT (3-(4,5-dimethylthiazol-2-yl)-2.5-diphenyltetrazolium bromide) assay, Alamar Blue® (Biosource DAL1100) and Hexosaminidase activity test, consecutively, following manufacturer instructions.
(§5) MTT: 1. Stock solution of MTT (475989 Calbiochem) was 5 mg/ml in PBS 1×. As negative control (experiment noise) 3 wells were treated with 20 μl/well of a solution of SDS 10% in H2O. The same control was used for Alamar Blue/Hexosaminidase. 10 μl/well of MTT solution were added and the plate was incubated for 3-4 hr. The medium was discarded and 100 μl of extracting buffer (PBS 1×, 15% SDS, 50% […] N,N-Dimethylformamide, pH 4.7) were added to each well. Plates were incubated for 16 h at room temperature under orbital shaking. Absorbance at 570 nm was finally measured.
(§6) Alamar Blue: 10 μl Alamar Blue solution was added to each well and the plates were incubated for […] in the incubator. Fluorescence ratio at 535/590 (excitation/emission) was measured in Cytofluor (Millipore) fluorimeter. Blank control was determined by lysis of untreated cells with con 2% of Triton X100, right before adding Alamar Blue solution.
(§7) Hexosaminidase activity test: after Alamar Blue lecture, medium was discarded and plates were rinsed once with PBS. 60 μl hexosaminidase substrate (p-nitrophenol-N-acetyl-beta-D-glucosamide 7.5 mM [Sigma N-9376], sodium citrate 0.1 M, pH 5.0, 0.25% Triton X-100) was added to each well and the plates were incubated at 37° C. for 2-5 h, according to the cell type (hexosaminidase activity changes according to the cell type). […] Blank control was the same as described before.
(§8) Data analysis was performed calculating the percentage of cell viability normalized vs. the values of negative control, which was considered equal to 100%. The dose/response curve was fitted through the sigmoidal equation dose-response (variable slope) and the EC50 values were calculated as follow: Y=Bottom+(Top−Bottom)/(1+10^{[(Log EC50−X)*HillSlope]},

Assay [2] addresses A549, epithelial (lung cancer). As for the experimental part: A549, epithelial (lung cancer), ATCC:CCL-185
as §1, §2, §3, §4, §5, §6, §7, §8

The target in assay [3] is RAMOS, B lymphocyte (Burkitt's Lymphoma). As for the experimental part: RAMOS, B lymphocyte (Burkitt's Lymphoma), ATCC: CRL-1596
as §1, §2, §3, §4, §5, §6, §7, §8

In assay [4] the target is HL-60, promyeloblast (acute myelocytic leukemia, AML). As for the experimental part: HL-60, promyeloblast (acute myelocytic leukemia, AML), ECACC: 98070106
as §1, §2, §3, §4, §5, §6, §7, §8

The target of assay [5] is MCF-7, epithelial (breast cancer). As for the experimental part: MCF-7, epithelial (breast cancer), ECACC: 86012803
as §1, §2, §3, §4, §5, §6, §7, §8

Where two headings read alike, the source gives them in different places. Bridge positions count the residues as written; N and C are the ends. Square brackets hold non-standard residues; d marks the D form. Ends that are not written are not given here. Peptide text beside a SMILES is read from it. R8 = C=CCCCCCC[C@@](C)(N)C(=O)O; S5 = C=CCCC[C@](C)(N)C(=O)O Bounds are passed on as bounds.

As for `CC[C@H](C)[C@H](NC(=O)[C@@H](NC(=O)[C@@H](NC(=O)[C@H](CCCCN)NC(=O)[C@@H]1CCCN1C(=O)[C@H](C)N)C(C)C)C(C)C)C(=O)N[C@]1(C)CCCCCC/C=C\CCC[C@@](C)(C(=O)N[C@@H](CC(C)C)C(=O)N[C@@H](CO)C(N)=O)NC(=O)[C@H](Cc2ccc(O)cc2)NC(=O)[C@H](C)NC(=O)[C@H]([C@@H](C)O)NC(=O)[C@H](C)NC(=O)[C@H](CCCCN)NC(=O)[C@H](CCCCN)NC1=O` [IDP-S17, APKVVIXKKATAYXLS] (H-APKVVI[R8]KKATAY[S5]LS-NH2; staple (Z) 7-14; N-terminus and C-terminus assumed), the EC50 in assay [1], in assay [2], in assay [3], in assay [4] and in assay [5] was over 100 µM in each case.
In the case of RQRRNELKRXFFALRDX-NH2 [IDP-S12], the EC50 was 22 ± 2 µM in assay [1] (MM.1S cells, read-out: EC50); 50 µM in assay [2] (A549 cells, read-out: EC50); 52 ± 2 µM in assay [3] (Ramos cells, read-out: EC50); 23 ± 1 µM in assay [4] (HL-60 cells, read-out: EC50); 42 ± 2 µM in assay [5] (MCF7 cells, read-out: EC50).
In the same order, the values of `CCc1ccc(/C=C2/SC(=S)NC2=O)cc1` [10058-F4, reference compound] are over 100 µM, over 100 µM, about 57 µM, 54 ± 2 µM and about 52 µM.
On to RQRRNXLKRAFAXLRD-OH [IDP-S311], for which the EC50 in assay [1] (MM.1S cells, read-out: EC50) is about 15 µM.
As to `CC(C)C[C@@H]1NC(=O)[C@H](C)NC(=O)[C@H](C)NC(=O)[C@H](Cc2ccccc2)NC(=O)[C@](C)(NC(=O)[C@H](CCCNC(=N)N)NC(=O)[C@H](CCCCN)NC(=O)[C@H](CC(C)C)NC(=O)[C@H](CCC(=O)O)NC(=O)[C@H](CC(N)=O)NC(=O)[C@H](CCCNC(=N)N)NC(=O)[C@H](CCCNC(=N)N)NC(=O)[C@H](CCC(N)=O)NC(=O)[C@@H](N)CCCNC(=N)N)CCCCCC/C=C\CCC[C@@](C)(C(N)=O)NC(=O)[C@H](CC(=O)O)NC(=O)[C@H](CCCNC(=N)N)NC1=O` [IDP-S04, RQRRNELKRXFAALRDX-H2] (H-RQRRNELKR[R8]FAALRD[S5]-NH2; staple (Z) 10-17; N-terminus assumed), the 50% effective concentration (EC50) is 19 ± 1 µM in assay [1] (MM.1S cells, read-out: EC50); about 64 µM in assay [3] (Ramos cells, read-out: EC50); about 24 µM in assay [4] (HL-60 cells, read-out: EC50); about 60 µM in assay [5] (MCF7 cells, read-out: EC50).
In the same order, the values of `CC(C)C[C@@H]1NC(=O)[C@H](C)NC(=O)[C@H](Cc2ccccc2)NC(=O)[C@H](Cc2ccccc2)NC(=O)[C@](C)(NC(=O)[C@H](CCCNC(=N)N)NC(=O)[C@H](CCCCN)NC(=O)[C@H](CC(C)C)NC(=O)[C@H](CCC(=O)O)NC(=O)[C@@H](N)CC(N)=O)CCCCCC/C=C\CCC[C@@](C)(C(N)=O)NC(=O)[C@H](CC(=O)O)NC(=O)[C@H](CCCNC(=N)N)NC1=O` [IDP-S13, NELKRXFFALRDX-NH2] (H-NELKR[R8]FFALRD[S5]-NH2; staple (Z) 6-13; N-terminus assumed) are over 100 µM, over 100 µM, over 100 µM and over 100 µM.
In the case of “RQRRNELKRSFFALRDQ [IDP-L11, RQRRNELKRSFFALRDQ]”, the EC50 in assay [1], in assay [3], in assay [4] and in assay [5] was over 100 µM each time.
Regarding QRRNXLKRAFAXLRD-OH [IDP-S312], the EC50 in assay [1] (MM.1S cells, read-out: EC50) is about 25 µM.
In the case of APKXVIFKKAXAYILS-OH [IDP-S14], the EC50 in assay [1] (MM.1S cells, read-out: EC50) is 6.6 ± 0.9 µM; in assay [2] (A549 cells, read-out: EC50) it was 9.1 ± 0.8 µM; in assay [3] (Ramos cells, read-out: EC50), 55 µM; in assay [4] (HL-60 cells, read-out: EC50) it was 7.8 ± 0.4 µM.
With `CC[C@H](C)[C@H](NC(=O)[C@]1(C)CCC/C=C\CCCCCC[C@@](C)(NC(=O)[C@@H](NC(=O)[C@@H](NC(=O)[C@H](CCCCN)NC(=O)[C@@H]2CCCN2C(=O)[C@H](C)N)C(C)C)C(C)C)C(=O)N[C@@H](CC(C)C)C(=O)N[C@@H](CCCCN)C(=O)N[C@@H](CCCCN)C(=O)N[C@@H](C)C(=O)N[C@@H]([C@@H](C)O)C(=O)N[C@@H](C)C(=O)N1)C(=O)N[C@@H](CC(C)C)C(=O)N[C@@H](CO)C(N)=O` [IDP-S22, APKVVXLKKATAXILS] (H-APKVV[R8]LKKATA[S5]ILS-NH2; staple (Z) 6-13; N-terminus and C-terminus assumed), the concentration for a half-maximal effect (EC50) in assay [1], in assay [2], in assay [3], in assay [4] and in assay [5] was over 100 µM throughout.
With `CC[C@H](C)[C@@H]1NC(=O)[C@H](Cc2ccc(O)cc2)NC(=O)[C@H](C)NC(=O)[C@H]([C@@H](C)O)NC(=O)[C@H](C)NC(=O)[C@H](CCCCN)NC(=O)[C@](C)(NC(=O)[C@H](CC(C)C)NC(=O)[C@@H](NC(=O)[C@@H](NC(=O)[C@@H](NC(=O)[C@H](CCCCN)NC(=O)[C@@H]2CCCN2C(=O)[C@H](C)N)C(C)C)C(C)C)[C@@H](C)CC)CCCCCC/C=C\CCC[C@@](C)(C(=O)N[C@@H](CO)C(N)=O)NC1=O` [IDP-S18, APKVVILXKATAYIXS] (H-APKVVIL[R8]KATAYI[S5]S-NH2; staple (Z) 8-15; N-terminus and C-terminus assumed), the EC50 in assay [1], in assay [2], in assay [3], in assay [4] and in assay [5] was over 100 µM throughout.

The term EC50 denotes the concentration giving half of the maximal effect.
